Data published in patent US8993554B2, “Tetrahydroquinoline derivatives useful as bromodomain inhibitors” (GlaxoSmithKline LLC, priority 2011, dated 2015).
Where a name gives a salt, the structure may show the parent alone.

test system: LPS induced IL-6 secretion from whole blood; assay: Measurement of LPS Induced IL-6 Secretion from Whole Blood; format: cell-based; settings: IL-6 by immunoassay, LPS 200 ng/ml, 24 hours
Method: Activation of monocytic cells by agonists of toll-like receptors such as bacterial lipopolysaccharide (LPS) results in production of key inflammatory mediators including IL-6. Such pathways are widely considered to be central to the pathophysiology of a range of auto-immune and inflammatory disorders.
Compounds to be tested are diluted to give a range of appropriate concentrations of which 1 μl of the diluted stocks is added to a 96 well plate. Following addition of whole blood (130 μl) the plates are incubated at 37 degrees (5% CO2) for 30 min before the addition of 10 μl of 2.8 ug/ml LPS, diluted in complete RPMI 1640 (final concentration=200 ng/ml), to give a total volume of 140 μl per well. After further incubation for 24 hours at 37 degrees, 140 μl of PBS are added to each well. The plates are sealed, shaken for 10 minutes and then centrifuged (2500 rpm×10 min). 100 μl of the supernatant are removed and IL-6 levels assayed by immunoassay (typically by MesoScale Discovery technology) either immediately or following storage at −20 degrees. Concentration response curves for each compound was generated from the data and an IC50 value was calculated.

IC50, 0.0501 to 3.16 µM:
CC(=O)N1c2ccc(-c3ccc(CCC(=O)NCCO)cc3)cc2[C@H](Nc2ccc(C#N)cn2)C[C@@H]1C [Example 2, 3-(4-((2S,4R)-1-Acetyl-4-((5-cyanopyridin-2-yl)amino)-2-methyl-1,2,3,4-tetrahydroquinolin-6-yl)phenyl)-N-(2-hydroxyethyl)propanamide]
CC(=O)N1c2ccc(-c3ccc(CC(=O)NCCO)cc3)cc2[C@H](Nc2ccc(C#N)cn2)C[C@@H]1C [Example 3, 2-(4-((2S,4R)-1-Acetyl-4-((5-cyanopyridin-2-yl)amino)-2-methyl-1,2,3,4-tetrahydroquinolin-6-yl)phenyl)-N-(2-hydroxyethyl)acetamide]
CC(=O)N1c2ccc(-c3ccc(CC(=O)NCCN(C)C)cc3)cc2[C@H](Nc2ccc(C#N)cn2)C[C@@H]1C [Example 5, 2-(4-((2S,4R)-1-Acetyl-4-((5-cyanopyridin-2-yl)amino)-2-methyl-1,2,3,4-tetrahydroquinolin-6-yl)phenyl)-N-(2-(dimethylamino)ethyl)acetamide]
CC(=O)N1c2ccc(-c3ccc(C(=O)NCCN)cc3)cc2[C@H](NC(=O)OC(C)C)C[C@@H]1C [Example 6, Isopropyl ((2S,4R)-1-acetyl-6-(4-((2-aminoethyl)carbamoyl)phenyl)-2-methyl-1,2,3,4-tetrahydroquinolin-4-yl)carbamate hydrochloride]
CC(=O)N1c2ccc(-c3ccc(C(=O)NCCN(C)C)cc3)cc2[C@H](NC(=O)OC(C)C)C[C@@H]1C [Example 7, Isopropyl ((2S,4R)-1-acetyl-6-(4-((2-(dimethylamino)ethyl)carbamoyl)phenyl)-2-methyl-1,2,3,4-tetrahydroquinolin-4-yl)carbamate]
CC(=O)N1c2ccc(-c3ccc(CC(=O)NCCN)cc3)cc2[C@H](NC(=O)OC(C)C)C[C@@H]1C [Example 9, Isopropyl ((2S,4R)-1-acetyl-6-(4-(2-((2-aminoethyl)amino)-2-oxoethyl)phenyl)-2-methyl-1,2,3,4-tetrahydroquinolin-4-yl)carbamate hydrochloride]
CC(=O)N1c2ccc(-c3ccc(C(=O)NCCN(C)C)cn3)cc2[C@H](Nc2ccc(C#N)cn2)C[C@@H]1C [Example 10, 6-((2S,4R)-1-acetyl-4-((5-cyanopyridin-2-yl)amino)-2-methyl-1,2,3,4-tetrahydroquinolin-6-yl)-N-(2-(dimethylamino)ethyl)nicotinamide]
CC(=O)N1c2ccc(-c3ccc(C(=O)NC(CO)CO)cn3)cc2[C@H](Nc2ccc(C#N)cn2)C[C@@H]1C [Example 11, 6-((2S,4R)-1-acetyl-4-((5-cyanopyridin-2-yl)amino)-2-methyl-1,2,3,4-tetrahydroquinolin-6-yl)-N-(1,3-dihydroxypropan-2-yl)nicotinamide]
CC(=O)N1c2ccc(-c3ccc(C(=O)NCCO)cn3)cc2[C@H](Nc2ccc(C#N)cn2)C[C@@H]1C [Example 12, 6-((2S,4R)-1-acetyl-4-((5-cyanopyridin-2-yl)amino)-2-methyl-1,2,3,4-tetrahydroquinolin-6-yl)-N-(2-hydroxyethyl)nicotinamide]
CC(=O)N1c2ccc(-c3ccc(C(=O)NCCO)cc3)cc2[C@H](Nc2ccc(C#N)cn2)C[C@@H]1C [Example 14, 4-((2S,4R)-1-acetyl-4-((5-cyanopyridin-2-yl)amino)-2-methyl-1,2,3,4-tetrahydroquinolin-6-yl)-N-(2-hydroxyethyl)benzamide]
CC(=O)N1c2ccc(-c3ccc(C(=O)NC(CO)CO)cc3)cc2[C@H](Nc2ccc(C#N)cn2)C[C@@H]1C [Example 15, 4-((2S,4R)-1-acetyl-4-((5-cyanopyridin-2-yl)amino)-2-methyl-1,2,3,4-tetrahydroquinolin-6-yl)-N-(1,3-dihydroxypropan-2-yl)benzamide]
CC(=O)N1c2ccc(-c3ccc(C(=O)NCCN(C)C)cc3)cc2[C@H](Nc2ccc(C#N)cn2)C[C@@H]1C [Example 16, 4-((2S,4R)-1-acetyl-4-((5-cyanopyridin-2-yl)amino)-2-methyl-1,2,3,4-tetrahydroquinolin-6-yl)-N-(2-(dimethylamino)ethyl)benzamide dihydrochloride]
CC(=O)N1c2ccc(-c3ccc(C(=O)NCCO)cc3)cc2[C@H](Nc2ccccn2)C[C@@H]1C [Example 19, 4-((2S,4R)-1-acetyl-2-methyl-4-(pyridin-2-ylamino)-1,2,3,4-tetrahydroquinolin-6-yl)-N-(2-hydroxyethyl)benzamide]
CC(=O)N1c2ccc(-c3ccc(C(=O)NCCN(C)C)cc3)cc2[C@H](Nc2ccccn2)C[C@@H]1C [Example 20, 4-((2S,4R)-1-acetyl-2-methyl-4-(pyridin-2-ylamino)-1,2,3,4-tetrahydroquinolin-6-yl)-N-(2-(dimethylamino)ethyl)benzamide]
CC(=O)N1c2ccc(-c3ccc(C(=O)NC(CO)CO)cc3)cc2[C@H](Nc2ccccn2)C[C@@H]1C [Example 21, 4-((2S,4R)-1-acetyl-2-methyl-4-(pyridin-2-ylamino)-1,2,3,4-tetrahydroquinolin-6-yl)-N-(1,3-dihydroxypropan-2-yl)benzamide]
CC(=O)N1c2ccc(-c3ccc(C(=O)NCCN)cc3)cc2[C@H](Nc2ccccn2)C[C@@H]1C [Example 22, 4-((2S,4R)-1-acetyl-2-methyl-4-(pyridin-2-ylamino)-1,2,3,4-tetrahydroquinolin-6-yl)-N-(2-aminoethyl)benzamide]
CC(=O)N1c2ccc(-c3ccc(C(=O)NCCN(C)C)cn3)cc2[C@H](Nc2ccccn2)C[C@@H]1C [Example 23, 6-((2S,4R)-1-acetyl-2-methyl-4-(pyridin-2-ylamino)-1,2,3,4-tetrahydroquinolin-6-yl)-N-(2-(dimethylamino)ethyl)nicotinamide]
CC(=O)N1c2ccc(-c3ccc(C(=O)NCCO)cn3)cc2[C@H](Nc2ccccn2)C[C@@H]1C [Example 24, 6-((2S,4R)-1-acetyl-2-methyl-4-(pyridin-2-ylamino)-1,2,3,4-tetrahydroquinolin-6-yl)-N-(2-hydroxyethyl)nicotinamide]
CC(=O)N1c2ccc(-c3ccc(C(=O)NC(CO)CO)cn3)cc2[C@H](Nc2ccccn2)C[C@@H]1C [Example 25, 6-((2S,4R)-1-acetyl-2-methyl-4-(pyridin-2-ylamino)-1,2,3,4-tetrahydroquinolin-6-yl)-N-(1,3-dihydroxypropan-2-yl)nicotinamide]
CC(=O)N1c2ccc(-c3ccc(C(=O)NCCN(C)C)nc3)cc2[C@H](Nc2ccc(C#N)cn2)C[C@@H]1C [Example 28, 5-((2S,4R)-1-acetyl-4-((5-cyanopyridin-2-yl)amino)-2-methyl-1,2,3,4 tetrahydroquinolin-6-yl)-N-(2-(dimethylamino)ethyl)picolinamide]
CC(=O)N1c2ccc(-c3ccc(C(=O)NCCO)nc3)cc2[C@H](Nc2ccc(C#N)cn2)C[C@@H]1C [Example 29, 5-((2S,4R)-1-acetyl-4-((5-cyanopyridin-2-yl)amino)-2-methyl-1,2,3,4-tetrahydroquinolin-6-yl)-N-(2-hydroxyethyl)picolinamide]
CC(=O)N1c2ccc(-c3ccc(C(=O)NC(CO)CO)nc3)cc2[C@H](Nc2ccc(C#N)cn2)C[C@@H]1C [Example 30, 5-((2S,4R)-1-acetyl-4-((5-cyanopyridin-2-yl)amino)-2-methyl-1,2,3,4tetrahydroquinolin-6-yl)-N-(1,3-dihydroxypropan-2-yl)picolinamide]
CC(=O)N1c2ccc(-c3ccc(C(=O)NCCCO)nc3)cc2[C@H](Nc2ccc(C#N)cn2)C[C@@H]1C [Example 31, 5-((2S,4R)-1-acetyl-4-((5-cyanopyridin-2-yl)amino)-2-methyl-1,2,3,4-tetrahydroquinolin-6-yl)-N-(3-hydroxypropyl)picolinamide]
CC(=O)N1c2ccc(-c3ccc(C(=O)N[C@H](C)CO)nc3)cc2[C@H](Nc2ccc(C#N)cn2)C[C@@H]1C [Example 32, 5-((2S,4R)-1-acetyl-4-((5-cyanopyridin-2-yl)amino)-2-methyl-1,2,3,4-tetrahydroquinolin-6-yl)-N—((R)-1-hydroxypropan-2-yl)picolinamide]
CC(=O)N1c2ccc(-c3ccc(C(=O)N4CCN(C)CC4)nc3)cc2[C@H](Nc2ccc(C#N)cn2)C[C@@H]1C [Example 34, 6-(((2S,4R)-1-acetyl-2-methyl-6-(6-(4-methylpiperazine-1-carbonyl)pyridin-3-yl)-1,2,3,4-tetrahydroquinolin-4-yl)amino)nicotinonitrile]
CC(=O)N1c2ccc(-c3ccc(C(=O)N4CC(N)C4)nc3)cc2[C@H](Nc2ccc(C#N)cn2)C[C@@H]1C [Example 37, 6-(((2S,4R)-1-acetyl-6-(6-(3-aminoazetidine-1-carbonyl)pyridin-3-yl)-2-methyl-1,2,3,4-tetrahydroquinolin-4-yl)amino)nicotinonitrile]
